Key:
Type in all cases: biochemical
[1] = biological target: T1, Sdt1 (Saccharomyces cerevisiae, UniProt P53078); experiment: malachite green phosphate release; conditions: 100 μM substrate, 5 mM MgCl2, pH 7.5, 37 °C, 30 min
T1 construct: recombinant, C-terminal His tag, commercial (Echelon Biosciences)

[2] = biological target: T2, Pho8 (Saccharomyces cerevisiae, UniProt P11491); experiment: pNPP hydrolysis, A400, whole cell extract of pho13Δ; conditions: Mg2+, Zn2+, pH 8.8, 37 °C, 15 min
T2 construct: native enzyme in whole cell extract of pho13Δ strain (Pho8 the remaining alkaline phosphatase)
T2 sequence (P11491 1-534): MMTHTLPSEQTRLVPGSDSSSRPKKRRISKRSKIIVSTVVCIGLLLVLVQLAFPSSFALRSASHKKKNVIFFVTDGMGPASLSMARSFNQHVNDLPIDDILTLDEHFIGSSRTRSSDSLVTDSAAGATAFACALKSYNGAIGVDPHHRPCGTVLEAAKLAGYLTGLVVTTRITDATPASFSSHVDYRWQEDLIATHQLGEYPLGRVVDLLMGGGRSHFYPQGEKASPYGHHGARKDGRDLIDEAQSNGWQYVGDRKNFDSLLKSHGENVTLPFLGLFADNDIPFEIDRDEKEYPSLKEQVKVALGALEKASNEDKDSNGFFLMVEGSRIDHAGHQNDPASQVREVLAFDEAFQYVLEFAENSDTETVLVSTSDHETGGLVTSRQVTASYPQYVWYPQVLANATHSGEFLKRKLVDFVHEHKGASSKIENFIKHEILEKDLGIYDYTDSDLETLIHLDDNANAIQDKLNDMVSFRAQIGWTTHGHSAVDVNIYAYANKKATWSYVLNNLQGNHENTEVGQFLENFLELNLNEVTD

[3] = biological target: T3, Pho13 (Saccharomyces cerevisiae, UniProt P19881); experiment: pNPP hydrolysis, A400, whole cell extract of pho8Δ; conditions: Mg2+, Zn2+, pH 8.8, 37 °C, 15 min
T3 construct: native enzyme in whole cell extract of pho8Δ strain (Pho13 the remaining alkaline phosphatase)
T3 sequence (P19881 1-312): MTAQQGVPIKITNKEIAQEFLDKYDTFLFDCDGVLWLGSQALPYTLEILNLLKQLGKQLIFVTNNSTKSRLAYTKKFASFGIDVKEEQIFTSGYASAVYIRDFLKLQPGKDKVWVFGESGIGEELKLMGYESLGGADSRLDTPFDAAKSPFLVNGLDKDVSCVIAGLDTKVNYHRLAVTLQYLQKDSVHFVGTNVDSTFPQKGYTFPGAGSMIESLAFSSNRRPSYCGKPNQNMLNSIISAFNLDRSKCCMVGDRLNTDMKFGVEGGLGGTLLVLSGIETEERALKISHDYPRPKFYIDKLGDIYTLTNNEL

[4] = biological target: T1, Sdt1; experiment: malachite green phosphate release; conditions: activator; 100 μM NMN, 5 mM MgCl2, pH 7.5, 37 °C, 30 min; mM NAM
[5] = biological target: T2, Pho8; experiment: pNPP hydrolysis, A400, whole cell extract of pho13Δ; conditions: pNPP substrate, Mg2+, Zn2+, pH 8.8, 37 °C, 15 min; weak inhibitor
[6] = biological target: T1, Sdt1; experiment: malachite green phosphate release; conditions: 100 μM CMP (also inhibited with NMN), 5 mM MgCl2, pH 7.5, 37 °C, 30 min; mM INAM
[7] = biological target: T4, Phm8 (Saccharomyces cerevisiae, UniProt P40025); experiment: malachite green phosphate release; conditions: 100 μM CMP, 5 mM MgCl2, pH 7.5, 37 °C, 30 min; mM INAM
T4 construct: pET-16b (NdeI), E. coli BL21(DE3), C-terminal 10xHis as printed, Ni-NTA purified
T4 sequence (P40025 1-321): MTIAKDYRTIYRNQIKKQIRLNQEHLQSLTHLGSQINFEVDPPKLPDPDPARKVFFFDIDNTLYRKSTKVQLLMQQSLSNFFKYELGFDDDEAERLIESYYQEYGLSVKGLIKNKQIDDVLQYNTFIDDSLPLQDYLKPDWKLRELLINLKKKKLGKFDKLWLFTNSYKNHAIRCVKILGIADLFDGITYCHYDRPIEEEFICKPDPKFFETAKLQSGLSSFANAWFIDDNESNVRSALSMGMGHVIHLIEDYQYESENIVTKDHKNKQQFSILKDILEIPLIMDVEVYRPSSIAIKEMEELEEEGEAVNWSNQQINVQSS

[8] = biological target: T3, Pho13; experiment: pNPP hydrolysis, A400, whole cell extract of pho8Δ; conditions: pNPP substrate, Mg2+, Zn2+, pH 8.8, 37 °C, 15 min; weak inhibitor

T1 sequence (P53078 whole entry): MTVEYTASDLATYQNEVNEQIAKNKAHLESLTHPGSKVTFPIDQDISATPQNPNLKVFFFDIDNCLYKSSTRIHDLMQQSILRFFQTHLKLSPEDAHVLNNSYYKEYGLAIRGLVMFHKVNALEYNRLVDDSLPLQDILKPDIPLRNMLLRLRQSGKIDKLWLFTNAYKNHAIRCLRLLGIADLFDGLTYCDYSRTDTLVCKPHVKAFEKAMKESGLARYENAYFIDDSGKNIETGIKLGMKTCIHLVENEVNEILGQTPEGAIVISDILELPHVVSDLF

NC(=O)c1ccc[n+]([C@@H]2O[C@H](COP(=O)(O)O)[C@@H](O)[C@H]2O)c1 [nicotinamide mononucleotide]
malachite green phosphate release [1]: INAM inhibition of recombinant Sdt1 nucleotidase activity on NMN in vitro

O=[N+]([O-])c1ccc(OP(=O)(O)O)cc1 [p-nitrophenyl phosphate]
pNPP hydrolysis, A400, whole cell extract of pho13Δ [2]: both utilize pNPP as a substrate in vitro | pNPP hydrolysis, A400, whole cell extract of pho8Δ [3]: both utilize pNPP as a substrate in vitro

NC(=O)c1cccnc1 [nicotinamide]
stimulation of nucleotidase activity [4]: NAM caused significant dose-dependent stimulation of Sdt1 nucleotidase activity with NMN as substrate

NC(=O)c1ccncc1 [isonicotinamide]
inhibition of alkaline phosphatase activity [5]: suggesting that Pho8 and Pho13 are both weak inhibitory targets | inhibition of nucleotidase activity [6]: Sdt1 and Phm8 activity on CMP and NMN was significantly inhibited by INAM | inhibition of nucleotidase activity [7]: INAM inhibition of recombinant Sdt1 and Phm8 nucleotidase activity on CMP in vitro | inhibition of alkaline phosphatase activity [8]: suggesting that Pho8 and Pho13 are both weak inhibitory targets
